Results: patent publication US20230167103A1 (Bayer Aktiengesellschaft, priority 2020, published 2023)

Target: T1, human DGKζ (Homo sapiens, UniProt Q13574)
T1 construct: made in house; host or cells: Sf9 insect cells, baculovirus
Test: Human DGKζ kinase activity inhibition assay (ADP-Glo)
Format: biochemical
Conditions: intermediates (comparative, lacking the R2 alkyl-carboxamide group); same assay conditions; read-out: IC50 values of intermediates in in vitro human DGKζ kinase activity inhibition assays
Method in brief: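 Enzyme was C-terminally FLAG-tagged full-length human DGKζ from baculovirus-infected insect cells, typically about 0.1 nM, with 1,2-dioleoyl-sn-glycerol in octyl-β-D-glucopyranoside micelles as substrate. ADP formed was detected by ADP-Glo luminescence; data normalised to no-inhibitor (0%) and no-enzyme (100%) controls.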

T1 sequence (Q13574 with tags, fused parts or gaps): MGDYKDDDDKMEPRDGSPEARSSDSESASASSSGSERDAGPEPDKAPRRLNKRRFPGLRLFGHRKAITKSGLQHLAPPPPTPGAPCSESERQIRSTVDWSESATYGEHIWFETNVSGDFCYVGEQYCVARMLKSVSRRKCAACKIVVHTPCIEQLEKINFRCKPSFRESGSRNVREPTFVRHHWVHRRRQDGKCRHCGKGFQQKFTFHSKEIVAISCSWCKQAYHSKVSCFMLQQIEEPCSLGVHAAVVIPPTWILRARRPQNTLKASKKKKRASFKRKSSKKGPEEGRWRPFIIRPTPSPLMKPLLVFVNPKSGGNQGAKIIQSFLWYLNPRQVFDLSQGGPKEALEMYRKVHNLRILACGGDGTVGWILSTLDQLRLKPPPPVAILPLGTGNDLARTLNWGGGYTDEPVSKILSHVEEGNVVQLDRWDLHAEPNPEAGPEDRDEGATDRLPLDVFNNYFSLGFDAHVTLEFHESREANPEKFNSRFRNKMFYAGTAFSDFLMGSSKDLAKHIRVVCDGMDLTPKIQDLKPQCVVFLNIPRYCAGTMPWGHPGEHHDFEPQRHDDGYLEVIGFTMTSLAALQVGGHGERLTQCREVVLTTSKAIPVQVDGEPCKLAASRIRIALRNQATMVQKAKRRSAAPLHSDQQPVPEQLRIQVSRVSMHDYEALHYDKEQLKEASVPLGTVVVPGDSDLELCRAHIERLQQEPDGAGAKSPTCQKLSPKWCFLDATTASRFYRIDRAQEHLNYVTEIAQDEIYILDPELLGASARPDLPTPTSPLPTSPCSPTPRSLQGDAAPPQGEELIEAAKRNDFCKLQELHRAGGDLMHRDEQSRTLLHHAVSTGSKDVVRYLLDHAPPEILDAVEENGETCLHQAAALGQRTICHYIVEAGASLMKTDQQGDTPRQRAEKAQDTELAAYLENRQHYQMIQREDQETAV

IC50: 19.4 µM
Substance: rac-5-[4-amino-2-(N-(2-amino-1-methyl-2-oxo-ethyl)-4-fluoro-anilino)thiazole-5-carbonyl]-N-(2-pyridyl)isoxazole-3-carboxamide [Example 28]
